Data on two substances can be found in patent US20130079493A1, “Method for prepairing peptide inhibitors of a lipid-activated enzyme and peptides produced by same” (ESTAJA OY, priority 2010, published 2013).

Assay [1] concerns the target T1, human phospholipase A2, content of tears (P14555) (Homo sapiens, UniProt P14555).
T1 construct: Reaction mixture contained 2 nM of phospholipase of human tears; from tissue; host or cells: human tear fluid
T1 sequence (P14555 21-144): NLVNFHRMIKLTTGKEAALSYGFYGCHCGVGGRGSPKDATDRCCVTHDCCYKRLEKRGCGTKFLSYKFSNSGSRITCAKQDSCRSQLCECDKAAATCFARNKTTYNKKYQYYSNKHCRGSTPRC
In words: Activity of human tear phospholipase A2 towards C28-O-PHPM in the presence of peptide (pyrene monomer fluorescence). Particulars: 2 nM enzyme, 40 nM or 80 nM peptide; FIG. 2. Format: biochemical. The procedure: Activity of secretory phospholipase A2 (Apis mellifica) of class III towards C28—O—PHPM was measured in the presence of peptide KMYFNLI (SEQ ID NO:1). Reaction mixture contained 2 nM of phospholipase A2, 2 nM or 4 nM of the peptide and 1.25 μM C28—O—PHPM (1-octacosanyl-2-(6-pyren-1-yl)hexanoyl-sn-glycero-3-phosphatidylmethanol) in 2.0 ml of 5 mM HEPES, 0.1 mM EDTA, 1 mM CaCl2, pH 7.4 at 37° C. with stirring. The assay was performed with or without preincubation step. The enzymatic reaction was followed by measuring the pyrene monomer fluorescence intensity at 400 nm using a spectrofluorometer. Excitation wavelength was 343 nm and the excitation and emission slits were 10 nm.
Activity of human phospholipase A2, content of tears (P14555), was measured in the presence of peptide AALSYGFYG (SEQ ID NO:68). Reaction mixture contained 2 nM of phospholipase of human tears, 40 nM or 80 nM of the peptide and 1.25 μM C28—O—PHPM (1-octacosanyl-2-(6-pyren-1-yl)hexanoyl-sn-glycero-3-phosphatidylmethanol) in 2.0 ml of 5 mM HEPES, 0.1 mM EDTA, 1 mM CaCl2, pH 7.4 at 37° C. with stirring. The assay was performed with or without preincubation step. The enzymatic reaction was followed as described in Example 2.

Assay [2] deals with secretory phospholipase A2 (Apis mellifica) of class III (Apis mellifera, UniProt P00630).

Where no end group is shown, it is not given here.

secretory phospholipase A2 (Apis mellifica) of class III, sequence (P00630 34-167 limits assumed): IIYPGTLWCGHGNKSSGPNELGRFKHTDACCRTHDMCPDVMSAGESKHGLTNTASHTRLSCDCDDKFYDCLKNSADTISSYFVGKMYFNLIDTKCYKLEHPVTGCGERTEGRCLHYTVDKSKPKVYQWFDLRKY

Take “AALSYGFYG (not fully specified (C-terminus); listed as Homo sapiens) [synthetic peptide corresponding to residues 17-25 of human secretory PLA2 present in tear fluid]”: the “inhibition of tear fluid PLA2 activity” value in assay [1] was “inhibited”. For the substance KMYFNLI, in assay [2], the “inhibition of bee venom PLA2 enzyme” value is on record as “complete inhibition” and the “peptide concentration at which inhibition was observed” value was determined as 2 nM.
